According to a melting point compilation (Tetko et al.; mined from patent text by program, amines drawn as free bases though some values may be those of a salt):

melting point | Compound
209 to 213 °C | Cc1sc2c(c1C(=O)c1ccc(S(C)=O)cc1)CCC2C(=O)O (centres undefined)
176 to 178 °C | CCOC(=O)c1c(Cn2cncn2)nc2cc(OC)c(OC)cc2c1-c1ccc(O)c(OC)c1
164 to 165 °C | CCc1[nH]n(C2CCCC2)c2nc(-c3ccc4c(c3)CC(C)O4)nc(=O)c1-2 (centres undefined)
250 to 252 °C | O=C1c2[nH]c3cc(O)ccc3c2CC1CC1CCN(Cc2ccccc2)CC1 (centres undefined)
235 to 236 °C | CC1(NC(=O)c2ccccc2)COC(c2nc(-c3ccc(F)cc3)c(-c3ccncc3)[nH]2)OC1 (centres undefined)
156 to 157 °C | COc1ccc(C2=NN(c3nc(C)ccc3C(F)(F)F)C(=O)C3CC=CCC23)cc1Cl (centres undefined)
122 to 135 °C | CCc1nc2cc(C(=O)NC)c(Cl)cc2n1-c1ccc(CCNC(=O)NS(=O)(=O)c2ccc(C)cc2)cc1
171 to 173 °C | O=c1cc(N2CCSCC2)oc2c1ccc1ccccc12
248 to 251 °C | CN1CCN(CC(=O)NC2(c3ccc(Cl)cc3)C(=O)Nc3cc(Cl)cc(Cl)c32)CC1 (centres undefined)
121 °C | Cc1ccc(S(=O)(=O)N2CCCC2c2ccc(Cl)cc2)cc1 (racemic)
202 to 204 °C | COCCc1nc2c(N)nc3cc(-c4cncc(CO)c4)ccc3c2n1CC(C)C
215 to 216 °C | Cc1ccc(-c2nnc[nH]2)cc1-c1cc2cnc(NC3CCOCC3)nc2n(C)c1=O
144 to 145 °C | CCCOC(=O)c1c(CBr)nc2cc(OC)c(OC)cc2c1-c1ccc(OC)c(OC)c1
137 to 139 °C | CCC(Oc1ccc(C)c(C)c1)C(=O)OC1CC(O)C=C2C=CC(C)C(CCC3CC(O)CC(=O)O3)C21 (mixture of isomers)
162 to 163 °C | Cc1cc(CCC(=O)OC(C)(C)C)nc(-c2nc(=O)c3ccc(Cl)cc3s2)c1
306 to 308 °C | Cc1nc2c(N)nc3ccccc3c2n1CC1(O)CCCC1

melting point | Compound
235 °C | CCCc1c2c(cc3c(=O)cc(C(=O)O)oc13)CCCC2
163 °C | CN1CCC(OC2c3ccccc3CCn3c2nc(I)c3I)CC1 (centres undefined)
182 to 184 °C | COc1cc2c(cc1OC)[C@@H]1CN(C)CC[C@@H]1N=C2c1ccc(C)c(C)c1 (relative stereo)
244 °C | N#Cc1ccc(C(=O)N[C@H]2CC[C@H](CCN3CCN(c4nccc5c4CCO5)CC3)CC2)cc1
143 to 145 °C | C[C@@H](O[C@H]1CCCN(Cc2n[nH]c(=O)[nH]2)[C@H]1c1ccccc1)c1cccc(C(F)(F)F)c1
136 °C | COc1ccc(C(=O)CCCN2CCC(OC(=O)c3cc(Cl)c(N)c4c3OCC4)CC2)cc1
150 to 153 °C | COc1ccc(CN(C)C(=O)c2c(-c3ccncc3)c(-c3ccc(F)cc3)nn2C)cc1
95 to 100 °C | O=C(O)c1cn(CCCc2ccccc2)c2cc(C3CC3)nn2c1=O
177 to 180 °C | CC1Cc2cc3c(cc2C(c2ccc([N+](=O)[O-])cc2)=NN1c1nc(=O)n(C)s1)OCO3 (centres undefined)
170 to 185 °C | CC1(C)CCC(=O)Nc2ccc(Nc3ncc(Cl)c(N[C@@H]4CCCC[C@H]4NS(C)(=O)=O)n3)cc21
162 to 164 °C | COc1cc2c(cc1OC)/C(=C/c1cc(OC)c(OC)c(OC)c1)N(C(=O)C1CCCCC1)CC2
208 to 210 °C | CC(C)OC(=O)c1cc(-n2c(=O)[nH]c3c(c2=O)CCC3)c(Cl)cc1Br
182 to 183 °C | CCOC(=O)CN(c1ccccc1)[C@H]1c2cc(C#N)ccc2OC(C)(C)[C@@H]1O
71 to 73 °C | Cc1ccc(C(=O)NC/C=C\COc2cc(CN3CCCCC3)ccn2)s1
120 °C | COc1ccc(C(=O)CN2CCN(C3CCCCO3)C2=O)cc1OC (centres undefined)

The remaining lines, values behind:

Compound | melting point
CC(=O)OCCC(=O)C1CCC2C3CCC4CC(O)CCC4(C)C3C(=O)CC12C (centres undefined) | 113 to 115 °C
COC(=O)c1ccc(-c2cccc(OC)c2)nc1 | 89.5 to 90 °C
CCN(CC)C(=O)C1CN2CCC1C(NCc1ccccc1OC)C2C(c1ccccc1)c1ccccc1 (centres undefined) | 121 to 123 °C
C#CCP(=O)(O)CCCN | 172 to 173 °C
NC(=O)c1c(N)nn(-c2ccccc2)c1N | 182 to 183 °C
CC(C#N)(COc1cc(C#N)ccc1C(F)(F)F)NC(=O)c1ccc(OC(F)(F)F)cc1 (centres undefined) | 75 to 78 °C
NNc1nc(Cl)nc2ccc(Cl)cc12 | > 280 °C
CC(C)CN(CC(C)C)S(=O)(=O)N[C@@H](Cc1ccc(NC(=O)c2c(Cl)cncc2Cl)cc1)C(=O)O | 209 °C
CCOP(=O)(OCC)C(O)c1ccc(NC(=O)CCc2oc(-n3cnc4ccccc43)nc2-c2ccc(Cl)cc2)cc1 (centres undefined) | 171 to 172 °C
Cc1ccc(-c2cc(=O)cc(C(=O)O)o2)cc1 | 237 to 238 °C
C=CCOC(=O)c1ccc(N)cc1 | 48 to 50 °C
Nc1nc(F)nc2nc[nH]c12 | > 300 °C
O=C(c1ccc(-n2cccn2)nc1Cl)N1Cc2cccn2Cc2ccccc21 | 133 to 135 °C
O=c1[nH]c2cc(Cl)cc(Cl)c2c(=O)n1Cc1ccccc1 | 260 to 265 °C
Cc1oc(-c2ccccc2)nc1COc1ccc(CN(O)C(=O)NO)cc1 | 194 to 195 °C
Clc1ccc2ncsc2c1Cl | 180 to 198 °C
CC(OC(=O)c1cn(-c2ccc(F)cc2)c(-c2ccc(N(C)C)cc2)cc1=O)OC(=O)C(C)(C)C (centres undefined) | 117 to 120 °C
CC(NOCc1ccccc1)c1cc2ccccc2s1 (centres undefined) | 55 to 56 °C
CS(=O)(=O)c1nnc(C(F)(F)F)s1 | 84 °C
CCOC(=O)Nc1ccc(NC(=O)OCc2ccccc2)c(O)c1 | 190 °C
COc1cc(C)cc(S(=O)(=O)c2cccc(F)c2C#N)c1 | 160 to 162 °C
C=CCn1c2ccccc2c2sccc(=O)c21 | 67 to 68 °C
CN1CC(c2ccc(S(C)(=O)=O)cc2)=C(c2ccccc2)C1=O | 163 to 165 °C

Compound | melting point
O=C(c1ccccc1)N1C(=O)c2cccnc2Nc2ccccc21 | 198 to 201 °C
N#Cc1ccc(-c2cn(-c3ccc(Br)cc3)cn2)cc1 | 178 to 185 °C
CCOC(=O)c1c(C(F)(F)F)nc(C(F)(F)Cl)c(C(=O)OC)c1Cl | 57.5 to 59.5 °C
CC(=O)c1c(F)cccc1N1CCN(C(=O)OC(C)(C)C)CC1 | 88 °C
C#Cc1ccc2c(c1)C(c1ccccn1)=NCc1c(C(=O)NC)ncn1-2 | 215 to 216 °C
O=C(/C=C/c1cccc(Cl)c1)N1CCCC1 | 137 to 138 °C
Cc1c(F)c(Oc2cc(C(F)(F)F)nn2C)nc(Oc2cc(C(F)(F)F)nn2C)c1F | 101 °C
Cn1c(C(=O)O)c(Oc2ccccc2N)c2ccccc21 | 193 to 194 °C
CN(C)c1c(Cl)cc(C(O)C#Cc2ccc(C(=O)O)cc2)cc1C(C)(C)C (centres undefined) | 120 °C
CCCS(=O)c1nc(OS(C)(=O)=O)c(Cl)cc1Cl (centres undefined) | 92 to 94 °C
CC(C)[C@H](O)C(=O)NCCc1ccccc1 | 100 °C
O=c1oc(C(F)(F)F)nc2ccc(I)cc12 | 131 to 132 °C
O=C(CCCCCNC(=O)C(c1ccccc1)c1ccccc1)NO | 55 to 56 °C
Cc1cc(Oc2ncc(C(F)(F)F)cc2Cl)nn1C(=S)NCc1ccc(Cl)cc1 | 119 to 121 °C
O=C(O)Cn1c(=O)c(=O)[nH]c2c([N+](=O)[O-])c(Br)c(Br)cc21 | 260 to 264 °C
O=NCNC1=Nc2ccc(Cl)cc2C(c2ccccc2F)=NC1 | 170 to 172 °C
CC(=O)C1=CC=C(C(C)(C)OO)C1 | 82 to 84 °C
CCc1cccc2c(C(N)CO)c[nH]c12 (centres undefined) | 84 to 86 °C
CC(C)c1cccc(C(C)C)c1NC(=O)CC1c2ccccc2Oc2ccccc21 | 231 to 232 °C
Cc1oc(-c2ccccc2)nc1CCOc1ccc(C[C@H](NC(=O)C=Cc2ccccc2C(F)(F)F)C(=O)O)cc1 | 170 to 172 °C
Clc1ccc2c(c1)N=Cc1ccccc1O2 | 73 to 73.5 °C
C#CC1(O)CCC2(C)C(CCC3C2CCC2(C)C(C(C)=O)CCC32)C1 (centres undefined) | 196 to 197 °C
COc1ccc(-c2ccc(C(C)=O)cc2Cl)c(OC)c1 | 115 to 118 °C

Compound | melting point
COc1ccc(N2CCN(c3ccccn3)CC2)cc1 | 126 °C
CCCOC(=O)Nc1cn2nc(OCc3cc(C)ccc3C)ccc2n1 | 196 to 197 °C
CCOC(=O)CC(=O)c1ccc(-c2ccc(Cl)cc2)cc1 | 45 to 50 °C
Cc1cc2ncc(Nc3cccc(Cl)c3)nc2cc1C | 175 °C
CCC(C)(C)c1cc(C(C)c2cc(C(C)(C)CC)cc(C(C)(C)CC)c2O)c(O)c(C(C)(C)CC)c1 | 116 to 118 °C
CC1(C)[C@H](Cc2noc(C(F)(F)F)n2)CC[C@]1(C)NCC(=O)N1C[C@@H](F)C[C@H]1C#N | 130 to 131 °C
CCCCCCCCOc1ccc(C(=O)OC)c(O)c1 | 46 to 47 °C
O=C(O)Cc1c(C(=O)c2cccs2)[nH]c2cc(Cl)ccc12 | 177 to 178 °C
O=C1c2ccccc2CCC1CNCC(O)c1cccc(O)c1 (centres undefined) | 140 to 143 °C
ClCC1c2ccccc2Oc2ccccc21 | 104 to 106 °C
COc1ccc(-c2cc3cc(F)c(F)cc3[nH]2)cc1NCc1ccc(C#N)cc1 | 158 to 159 °C
COC(=O)c1cc(C(=O)N[C@@H](Cc2ccccc2)[C@H]2CN(C3(c4cccc(C(F)(F)F)c4)CC3)C(=O)O2)n2c1CN(C(=O)OC(C)(C)C)CC2 | 106 °C
CC(C)n1cnc(-c2ccc(F)cc2)c1-c1ccncc1 | 179 to 180 °C
COc1ccc(C=C2CS(=O)(=O)CC(=Cc3ccc(OC)cc3)C2(O)NC2=NCCS2)cc1 (centres undefined) | 194 to 196 °C
COc1cccc2c1c(S(N)(=O)=O)nn2C | 268 to 270 °C
Fc1ccc(-n2ncnc2-c2ccncc2)cc1 | 114 to 115 °C
CN(Cc1ccc2c(Br)c(O)ccc2c1)C(=O)c1cn(C)c2ccccc12 | 189 to 190 °C
C=Cc1cn(S(=O)(=O)c2ccc(C)cc2)c2ccc(C#N)cc12 | 134 to 135 °C
O=C(O)COc1cccc2c1CCc1sc(Cc3ccccc3)nc1-2 | 146 to 149 °C
FC(F)(F)COc1ccc(CCNc2ncnc3scnc23)cn1 | 109 to 112 °C
Cc1nsc(N=Nc2ccc(N(CCO)CCO)cc2NC(=O)C(C)C)c1C#N | 152 to 154 °C
O=C(NS(=O)(=O)c1ccccc1)c1ccc(I)cc1 | 192 to 193 °C
